Reference: the supplement of paper PMC10307832

Assays:
Assay in all cases: relative viability (nuclei count vs DMSO), 5 days (fraction); higher = more cells survive
Halofuginone = compound: O=C(C[C@H]1NCCC[C@@H]1O)Cn1cnc2cc(Br)c(Cl)cc2c1=O (racemic) [Halofuginone]
Method in brief: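 On vehicle-anchored 1536-well plates, lung cancer cell lines held overnight at 37 °C were pinned with five library-drug doses (not always all listed) spaced by √10. With no medium change over 5 days, they were then fixed, permeabilised and Hoechst-stained in one step and imaged at 4×. MetaXpress counted nuclei, and viability is the median across plates of treated-well over vehicle-well nuclei. Acceptance needed control CV below 25% and at least one doubling.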

Cediranib + Dasatinib = compound: COc1cc2c(Oc3ccc4[nH]c(C)cc4c3F)ncnc2cc1OCCCN1CCCC1 [Cediranib] + Cc1nc(Nc2ncc(C(=O)Nc3c(C)cccc3Cl)s2)cc(N2CCN(CCO)CC2)n1 [Dasatinib] (partner 0.075 µM)
Method in brief: (§1)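 Lung cancer cell lines in 1536-well plates were dosed by pin tool the day after seeding, either with one drug alone or with a fixed anchor-drug dose plus five library-drug doses (not always all listed) in √10 steps. After 5 days, cells were fixed and their nuclei stained in one step (final 0.05% Triton X-100, 1% formaldehyde, 1 ug/ml Hoechst), then counted on 4× images. Relative viability is the nuclei count in treated wells divided by that in vehicle wells. Values are medians of duplicate plates.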

Decitabine + Palbociclib = compound: Nc1ncn([C@H]2C[C@H](O)[C@@H](CO)O2)c(=O)n1 [Decitabine] + CC(=O)c1c(C)c2cnc(Nc3ccc(N4CCNCC4)cn3)nc2n(C2CCCC2)c1=O [Palbociclib] (partner 0.5 µM)
Method in brief: as §1

Decitabine + Pictilisib = compound: Nc1ncn([C@H]2C[C@H](O)[C@@H](CO)O2)c(=O)n1 [Decitabine] + CS(=O)(=O)N1CCN(Cc2cc3nc(-c4cccc5[nH]ncc45)nc(N4CCOCC4)c3s2)CC1 [Pictilisib] (partner 1 µM)
Method in brief: as §1

| Cell Line | relative viability (Halofuginone; 0.001 µM) | relative viability (Halofuginone; 0.003162 µM) | relative viability (Halofuginone; 0.01 µM) | relative viability (Halofuginone; 0.03162 µM) | relative viability (Halofuginone; 0.1 µM) | relative viability (Cediranib + Dasatinib; first compound 0.04 µM) | relative viability (Cediranib + Dasatinib; first compound 0.1265 µM) | relative viability (Cediranib + Dasatinib; first compound 0.4 µM) | relative viability (Cediranib + Dasatinib; first compound 1.265 µM) | relative viability (Cediranib + Dasatinib; first compound 4 µM) | relative viability (Decitabine + Palbociclib; first compound 0.04 µM) | relative viability (Decitabine + Palbociclib; first compound 0.1265 µM) | relative viability (Decitabine + Palbociclib; first compound 0.4 µM) | relative viability (Decitabine + Palbociclib; first compound 1.265 µM) | relative viability (Decitabine + Palbociclib; first compound 4 µM) | relative viability (Decitabine + Pictilisib; first compound 0.04 µM) | relative viability (Decitabine + Pictilisib; first compound 0.1265 µM) | relative viability (Decitabine + Pictilisib; first compound 0.4 µM) | relative viability (Decitabine + Pictilisib; first compound 1.265 µM) | relative viability (Decitabine + Pictilisib; first compound 4 µM) |
| --- | --- | --- | --- | --- | --- | --- | --- | --- | --- | --- | --- | --- | --- | --- | --- | --- | --- | --- | --- | --- |
| RERF-LC-KJ | 1.08 | 1.07 | 0.951 | 0.966 | 0.912 | 0.823 | 0.695 | 0.842 | 0.834 | 0.838 | 1.02 | 1.02 | 0.404 | 0.633 | 0.636 | 0.508 | 0.607 | 0.403 | 0.368 | 0.354 |
| NCI-H1755 | 1.02 | 1.04 | 1.01 | 1.01 | 0.978 | 0.471 | 0.59 | 0.343 | 0.463 | 0.424 | 0.461 | 0.495 | 0.424 | 0.431 | 0.407 | 0.385 | 0.411 | 0.291 | 0.365 | 0.343 |
| PC-14 | 1.02 | 1 | 0.93 | 0.639 | 0.348 | 0.235 | 0.27 | 0.243 | 0.224 | 0.0965 | 0.435 | 0.36 | 0.264 | 0.112 | 0.098 | 0.0668 | 0.749 | 0.348 | 0.28 | 0.11 |
| NCI-H322M | 0.991 | 0.956 | 0.883 | 0.649 | 0.478 | 0.239 | 0.277 | 0.247 | 0.258 | 0.255 | 0.439 | 0.485 | 0.554 | 0.479 | 0.463 | 0.408 | 0.537 | 0.53 | 0.397 | 0.424 |
| NCI-H1666 | 0.993 | 0.936 | 0.991 | 1.06 | 0.991 | 0.831 | 0.888 | 0.797 | 0.829 | 0.762 | 0.692 | 0.684 | 0.675 | 0.553 | 0.647 | 0.458 | 0.478 | 0.387 | 0.319 | 0.372 |
| A-427 | 1.02 | 1.04 | 0.89 | 0.989 | 0.921 | 0.683 | – | 0.672 | 0.596 | 0.919 | 0.451 | 0.466 | 0.378 | 0.431 | 0.381 | 0.42 | 0.663 | 0.244 | 0.359 | 0.219 |
| NCI-H1651 | 0.983 | 1.14 | 0.966 | 0.934 | 0.735 | 0.53 | 0.46 | 0.432 | 0.385 | 0.343 | 0.522 | 0.508 | 0.515 | 0.389 | 0.403 | 0.481 | 0.598 | 0.624 | 0.503 | 0.434 |
| NCI-H1793 | 1.01 | 0.811 | 0.904 | 1.04 | 0.557 | 0.317 | 0.415 | 0.398 | – | 0.501 | 0.339 | 0.329 | 0.381 | 0.301 | 0.31 | 0.308 | 0.351 | 0.245 | 0.302 | 0.224 |
| NCI-H520 | 1.01 | 1.07 | 1.04 | 0.91 | 0.635 | 0.264 | 0.238 | 0.162 | 0.155 | 0.174 | 0.22 | 0.23 | 0.204 | 0.17 | 0.184 | 0.315 | 0.271 | 0.241 | 0.222 | 0.198 |
| 201T | 0.97 | 0.967 | 0.952 | 0.933 | 0.803 | 0.622 | 0.67 | 0.628 | 0.575 | 0.582 | 0.373 | 0.383 | 0.439 | – | 0.379 | 0.655 | 0.817 | 0.93 | 0.695 | 0.531 |
| NCI-H460 | 1.04 | 1.03 | 0.973 | 0.975 | 0.571 | 0.51 | 0.634 | 0.466 | 0.459 | 0.562 | 0.174 | 0.289 | 0.185 | 0.0847 | 0.0625 | 0.389 | 0.549 | 0.524 | 0.373 | 0.334 |
| HARA | 0.963 | 0.927 | 0.915 | 1.12 | 0.827 | 0.193 | – | 0.247 | 0.237 | 0.239 | 0.238 | 0.244 | 0.253 | 0.223 | 0.207 | 0.367 | 0.564 | 0.285 | 0.236 | 0.15 |
| NCI-H2170 | 0.988 | 1.05 | 0.917 | 0.982 | 0.991 | 0.523 | 0.713 | 0.605 | 0.384 | 0.566 | 0.314 | 0.341 | 0.334 | 0.256 | 0.227 | 0.256 | 0.254 | 0.312 | 0.285 | 0.269 |
| NCI-H2126 | 1.02 | 0.992 | 0.949 | 0.968 | 0.88 | 0.634 | 0.569 | 0.609 | 0.554 | 0.543 | 0.367 | 0.354 | 0.313 | 0.36 | 0.372 | 0.517 | 0.543 | 0.463 | 0.39 | 0.438 |
| HCC-827 | 1.07 | 1.04 | 0.976 | 1.03 | 0.939 | 0.284 | – | 0.226 | 0.309 | 0.275 | 0.231 | 0.311 | 0.294 | 0.262 | 0.181 | 0.511 | 0.63 | 0.618 | 0.505 | 0.62 |
| ABC-1 | 0.939 | 1.02 | 0.881 | 0.934 | 0.77 | 0.536 | 0.651 | 0.448 | 0.474 | 0.457 | – | 0.805 | 0.794 | 0.57 | 0.551 | 0.812 | 0.728 | 0.812 | 0.443 | 0.505 |
